Data reported in patent US20200131176A1, “SELECTIVE INHIBITORS OF CLINICALLY IMPORTANT MUTANTS OF THE EGFR TYROSINE KINASE” (CS Pharmatech Limited, priority 2017, published 2020).
Where “and” joins values, the source holds several entries; their conditions need not be identical. Equal entries are not always repeated. Structures can show the parent of a compound that is named as a salt. Where two headings read alike, the source gives them in different places.

Columns and labels:
A431 cells = assay: A431 inhibition assay (cell proliferation, CellTiter-Glo, 72 h); type: cell-based, human; conditions: Homo sapiens, A-431, 72 h, cellular proliferation, wild type EGFR, read-out: A431 IC50 (nM) WT
PC-9 cells = assay: PC-9 growth inhibition assay (cell proliferation, CellTiter-Glo, 72 h); type: cell-based, human; conditions: Homo sapiens, PC-9, 72 h, cellular proliferation, PC9 cells, single mutant EGFR, read-out: PC9 IC50 (nM) SM
H1975 cells = assay: H1975 inhibition assay (cell proliferation, CellTiter-Glo, 72 h); type: cell-based, human; conditions: Homo sapiens, NCI-H1975, 72 h, cellular proliferation, double mutant EGFR, read-out: NCI-H1975 IC50 (nM) DM
[1] = target: Wild type EGFR in A431 cells (Homo sapiens, UniProt P00533); conditions: WT (A431) IC50 nM, cellular EGFR autophosphorylation, A431, 2 h treatment then EGF stimulation 10 min
Sequence of Wild type EGFR in A431 cells (P00533 25-1210): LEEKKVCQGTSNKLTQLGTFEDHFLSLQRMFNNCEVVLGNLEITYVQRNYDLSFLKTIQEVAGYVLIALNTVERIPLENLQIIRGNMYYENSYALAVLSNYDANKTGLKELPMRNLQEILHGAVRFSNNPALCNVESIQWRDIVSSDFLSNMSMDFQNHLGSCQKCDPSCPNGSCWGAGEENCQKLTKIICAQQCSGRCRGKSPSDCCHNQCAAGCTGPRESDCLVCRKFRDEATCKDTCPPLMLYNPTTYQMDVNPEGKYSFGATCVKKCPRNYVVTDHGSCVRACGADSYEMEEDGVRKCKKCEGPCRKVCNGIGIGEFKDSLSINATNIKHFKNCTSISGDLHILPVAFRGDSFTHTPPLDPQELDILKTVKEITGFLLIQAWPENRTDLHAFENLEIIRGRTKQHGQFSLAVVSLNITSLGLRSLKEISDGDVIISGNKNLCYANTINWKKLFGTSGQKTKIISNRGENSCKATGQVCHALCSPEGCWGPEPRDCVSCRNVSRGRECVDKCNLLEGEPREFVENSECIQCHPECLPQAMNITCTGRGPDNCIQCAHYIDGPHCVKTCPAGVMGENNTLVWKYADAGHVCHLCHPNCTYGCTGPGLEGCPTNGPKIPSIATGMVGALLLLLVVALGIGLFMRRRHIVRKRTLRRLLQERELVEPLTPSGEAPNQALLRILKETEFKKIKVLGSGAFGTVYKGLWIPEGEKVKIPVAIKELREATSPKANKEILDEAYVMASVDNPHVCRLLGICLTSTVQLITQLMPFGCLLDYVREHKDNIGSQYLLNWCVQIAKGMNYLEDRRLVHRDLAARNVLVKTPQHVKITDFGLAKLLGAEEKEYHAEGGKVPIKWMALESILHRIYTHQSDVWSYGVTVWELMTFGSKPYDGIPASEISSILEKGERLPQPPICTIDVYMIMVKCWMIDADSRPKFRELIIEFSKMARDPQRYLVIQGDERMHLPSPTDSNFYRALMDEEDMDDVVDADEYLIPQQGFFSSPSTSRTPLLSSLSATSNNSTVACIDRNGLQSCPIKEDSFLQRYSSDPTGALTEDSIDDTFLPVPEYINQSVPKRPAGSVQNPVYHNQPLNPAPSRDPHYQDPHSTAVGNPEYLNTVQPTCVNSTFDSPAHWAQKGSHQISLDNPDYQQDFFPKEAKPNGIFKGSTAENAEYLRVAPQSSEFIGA

[2] = target: T1, L858R/T790M double mutant EGFR in H1975 cells (Homo sapiens, UniProt P00533, L858R/T790M); assay: L858R/T790M double mutant H1975 autophosphorylation inhibition assay (ELISA); type: cell-based; conditions: cellular EGFR autophosphorylation, H1975, 2 h treatment; read-out: DM (H1975) IC50
T1 construct: endogenous in cells; host or cells: H1975 cells
T1 sequence (P00533 25-1210 T790M/L858R): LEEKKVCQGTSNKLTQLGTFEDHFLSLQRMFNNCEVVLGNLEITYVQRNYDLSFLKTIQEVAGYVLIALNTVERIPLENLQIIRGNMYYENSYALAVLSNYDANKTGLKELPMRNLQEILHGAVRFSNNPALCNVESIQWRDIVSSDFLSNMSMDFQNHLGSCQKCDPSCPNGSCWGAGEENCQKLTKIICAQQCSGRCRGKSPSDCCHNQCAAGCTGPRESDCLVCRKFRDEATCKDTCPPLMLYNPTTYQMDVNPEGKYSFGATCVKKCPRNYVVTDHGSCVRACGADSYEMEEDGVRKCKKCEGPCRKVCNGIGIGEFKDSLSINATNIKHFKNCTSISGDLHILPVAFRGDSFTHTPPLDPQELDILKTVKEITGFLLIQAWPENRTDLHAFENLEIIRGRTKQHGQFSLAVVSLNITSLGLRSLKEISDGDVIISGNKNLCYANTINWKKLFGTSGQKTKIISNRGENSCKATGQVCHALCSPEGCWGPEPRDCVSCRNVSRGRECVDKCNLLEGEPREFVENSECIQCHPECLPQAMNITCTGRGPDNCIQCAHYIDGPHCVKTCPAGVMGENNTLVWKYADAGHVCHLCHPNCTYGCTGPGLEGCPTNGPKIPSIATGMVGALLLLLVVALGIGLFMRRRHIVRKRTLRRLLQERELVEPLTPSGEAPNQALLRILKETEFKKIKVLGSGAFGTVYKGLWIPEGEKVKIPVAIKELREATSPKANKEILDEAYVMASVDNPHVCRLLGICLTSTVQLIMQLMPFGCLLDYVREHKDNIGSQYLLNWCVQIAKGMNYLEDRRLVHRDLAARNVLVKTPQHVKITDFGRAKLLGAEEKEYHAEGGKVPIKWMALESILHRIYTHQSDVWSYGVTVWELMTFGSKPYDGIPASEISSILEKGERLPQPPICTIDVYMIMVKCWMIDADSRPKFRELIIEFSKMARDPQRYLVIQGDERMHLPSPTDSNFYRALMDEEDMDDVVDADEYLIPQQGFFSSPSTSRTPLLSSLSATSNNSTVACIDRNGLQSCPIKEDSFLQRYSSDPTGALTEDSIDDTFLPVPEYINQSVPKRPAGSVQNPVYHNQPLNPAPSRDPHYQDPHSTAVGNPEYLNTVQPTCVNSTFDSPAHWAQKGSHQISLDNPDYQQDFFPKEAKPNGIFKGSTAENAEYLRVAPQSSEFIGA

[3] = target: T2, Exon 19 deletion EGFR (activating single mutant) in PC-9 cells (Homo sapiens, UniProt P00533, DEL746-750); assay: Exon 19 deletion EGFR PC-9 cellular autophosphorylation assay (p-EGFR ELISA); type: cell-based; conditions: PC9, 2 h treatment, read-out: SM (PC9) IC50
T2 construct: cellular phosphorylation of endogenous p-EGFR; host or cells: PC9 (PC-9) human lung cell line
T2 sequence (P00533 with tags, fused parts or gaps DEL746-750): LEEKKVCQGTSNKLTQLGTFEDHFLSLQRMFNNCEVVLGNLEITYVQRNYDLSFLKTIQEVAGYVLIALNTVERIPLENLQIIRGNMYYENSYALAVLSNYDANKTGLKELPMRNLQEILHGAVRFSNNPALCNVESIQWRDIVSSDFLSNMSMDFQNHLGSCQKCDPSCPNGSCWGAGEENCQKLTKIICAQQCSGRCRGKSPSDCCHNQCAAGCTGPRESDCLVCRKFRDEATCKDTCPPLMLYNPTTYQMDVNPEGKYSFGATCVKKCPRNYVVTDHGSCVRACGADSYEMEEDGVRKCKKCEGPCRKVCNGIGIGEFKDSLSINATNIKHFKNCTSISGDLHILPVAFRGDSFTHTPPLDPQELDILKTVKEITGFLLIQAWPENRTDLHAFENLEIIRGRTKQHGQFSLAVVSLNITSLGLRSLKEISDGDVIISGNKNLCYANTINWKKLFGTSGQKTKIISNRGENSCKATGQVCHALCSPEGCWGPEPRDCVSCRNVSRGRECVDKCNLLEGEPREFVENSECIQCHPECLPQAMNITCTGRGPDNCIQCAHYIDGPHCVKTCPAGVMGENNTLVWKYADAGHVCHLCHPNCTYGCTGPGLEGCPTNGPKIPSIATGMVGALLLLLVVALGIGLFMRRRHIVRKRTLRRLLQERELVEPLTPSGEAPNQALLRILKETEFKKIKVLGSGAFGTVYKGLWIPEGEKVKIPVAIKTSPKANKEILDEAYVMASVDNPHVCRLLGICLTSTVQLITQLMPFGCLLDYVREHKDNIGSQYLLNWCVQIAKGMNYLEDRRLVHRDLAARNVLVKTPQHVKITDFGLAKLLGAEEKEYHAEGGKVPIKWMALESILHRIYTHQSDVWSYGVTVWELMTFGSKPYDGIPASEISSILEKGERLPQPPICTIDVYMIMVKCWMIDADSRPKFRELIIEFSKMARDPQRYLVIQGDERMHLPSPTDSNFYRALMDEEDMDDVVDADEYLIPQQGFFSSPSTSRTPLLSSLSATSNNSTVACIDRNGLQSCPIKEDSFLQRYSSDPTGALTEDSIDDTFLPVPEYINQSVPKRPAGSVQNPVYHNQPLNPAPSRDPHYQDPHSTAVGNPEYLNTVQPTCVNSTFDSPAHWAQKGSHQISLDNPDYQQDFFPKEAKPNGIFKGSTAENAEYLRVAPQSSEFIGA

[4] = target: hERG channel (HEK 293 cell line stably expressing hERG channel) (Homo sapiens, UniProt Q12809); assay: cell-based
Sequence of hERG channel (HEK 293 cell line stably expressing hERG channel) (Q12809 whole entry): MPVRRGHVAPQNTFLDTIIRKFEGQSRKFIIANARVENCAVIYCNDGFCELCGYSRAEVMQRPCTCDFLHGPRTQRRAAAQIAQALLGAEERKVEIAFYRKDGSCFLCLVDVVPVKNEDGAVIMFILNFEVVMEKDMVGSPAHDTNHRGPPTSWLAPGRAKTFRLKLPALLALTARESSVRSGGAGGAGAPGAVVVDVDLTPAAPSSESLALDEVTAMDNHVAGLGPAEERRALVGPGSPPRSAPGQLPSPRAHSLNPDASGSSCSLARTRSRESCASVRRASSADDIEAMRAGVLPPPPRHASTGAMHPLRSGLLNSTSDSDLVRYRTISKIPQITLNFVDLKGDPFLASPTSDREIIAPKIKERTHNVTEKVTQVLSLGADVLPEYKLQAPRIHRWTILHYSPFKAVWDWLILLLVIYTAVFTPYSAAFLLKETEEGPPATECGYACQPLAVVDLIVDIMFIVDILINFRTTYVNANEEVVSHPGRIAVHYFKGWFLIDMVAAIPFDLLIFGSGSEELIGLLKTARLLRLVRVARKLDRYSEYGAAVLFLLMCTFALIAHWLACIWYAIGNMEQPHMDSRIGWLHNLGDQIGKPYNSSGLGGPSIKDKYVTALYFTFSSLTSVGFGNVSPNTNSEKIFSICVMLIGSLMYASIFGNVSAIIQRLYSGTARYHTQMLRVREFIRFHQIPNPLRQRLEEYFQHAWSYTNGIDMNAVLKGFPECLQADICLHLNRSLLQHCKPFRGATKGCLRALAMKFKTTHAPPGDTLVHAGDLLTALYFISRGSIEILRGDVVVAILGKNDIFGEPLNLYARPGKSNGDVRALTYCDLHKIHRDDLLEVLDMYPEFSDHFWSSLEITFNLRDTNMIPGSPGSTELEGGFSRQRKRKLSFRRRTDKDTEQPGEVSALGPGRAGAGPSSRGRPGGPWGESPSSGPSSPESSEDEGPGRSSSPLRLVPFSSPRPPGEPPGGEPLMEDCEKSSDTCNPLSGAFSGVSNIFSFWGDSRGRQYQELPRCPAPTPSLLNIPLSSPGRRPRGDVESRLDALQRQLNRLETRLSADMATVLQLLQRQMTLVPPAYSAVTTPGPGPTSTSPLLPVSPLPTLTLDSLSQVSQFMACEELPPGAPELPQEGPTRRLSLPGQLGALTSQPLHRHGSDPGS

Mouse in vivo PK study [5] = conditions: male CD1 mice, 1 mg/kg IV; for F: 10 mg/kg PO; for AUC / clearance / half-life: mouse, plasma; for half-life: read-out: T1/2 (IV) (converted)
Experimental: To determine the drug concentration in plasma of the compounds of the present disclosure following intravenous and oral administration in male CD 1 Mice, pharmacokinetic profile and PK parameters were obtained.
Test animals: healthy male CD1 mice (body weight 20-30 g, 18 mice, free access to food and water), provided by Sibeifu laboratory. […]
Samples collection: the healthy animals were used, weighed the bodyweight and marked at tail and cage card prior to dosing. Blood samples (0.03 mL per time point) were collected from dorsal metatarsal vein at 0.083, 0.25, 0.5, 1, 2, 4, 8, 24 h post dose for IV group and at 0.25, 0.5, 1, 2, 4, 8, 24 h post dose for PO group, the terminal time point was collected from heart (˜0.3 mL). The blood samples were put into the tube with heparin-Na coated and then put on the cold box, centrifuged at 4° C. 4000 g, 5 minutes immediately after collecting all samples per time point to get plasma. The plasma samples were stored in a freezer at −75±15° C. prior to analysis.
The drug concentration was determined by LC/MS/MS method, and the PK parameters were observed as follows.

Mouse in vivo PK study [6] = conditions: mouse, plasma, male CD1 mice, 10 mg/kg PO; for half-life: read-out: T1/2 (PO) (converted)

Row | IC50 (A431 cells) [nM] | IC50 (PC-9 cells) [nM] | IC50 (H1975 cells) [nM] | IC50 [1] | IC50 [2] | IC50 [3] | F (Mouse in vivo PK study [5]) [%] | AUC (Mouse in vivo PK study [5]) [ng·h/mL] | clearance (Mouse in vivo PK study [5]) [mL/min/kg] | half-life (Mouse in vivo PK study [5]) [h] | AUC (Mouse in vivo PK study [6]) [ng·h/mL] | Cmax (Mouse in vivo PK study [6]) [ng/mL] | half-life (Mouse in vivo PK study [6]) [h] | SMILES | IC50 [4] [nM]
1 | 2140 | 9.24 | 11.4 |  |  |  |  |  |  |  |  |  |  | C=CC(=O)Nc1cc(Nc2nccc(-n3nc(N(C)C)c4cnc(C)cc43)n2)c(OC)cc1N(C)CCN(C)C [Example 1, N-(5-((4-(3-(Dimethylamino)-6-methyl-1H-pyrazolo[4,3-c]pyridin-1-yl)pyrimidin-2-yl)amino)-2-((2-(dimethylamino)ethyl)(methyl)amino)-4-methoxyphenyl)acrylamide] | 
2 | 1380 | 4.15 | 4.38 | 63.1 nM | 2.16 nM | 5.15 nM |  |  |  |  |  |  |  | C=CC(=O)Nc1cc(Nc2nccc(-c3cc4c(C)c[nH]c4c(C#N)n3)n2)c(OC)cc1N(C)CCN(C)C [Example 3, N-(5-((4-(7-Cyano-3-methyl-1H-pyrrolo[2,3-c]pyridin-5-yl)pyrimidin-2-yl)amino)-2-((2-(dimethylamino)ethyl)(methyl)amino)-4-methoxyphenyl)acryl amide] | 858
3 | 1800 | 18.6 | 11.6 | 327 nM and 464 nM | 20.7 nM and 38.8 nM | 27.6 nM and 29.4 nM |  |  |  |  |  |  |  | C=CC(=O)Nc1cc(Nc2nccc(-n3nc(OC)c4ccccc43)n2)c(OC)cc1N(C)CCN(C)C [Example 8, N-(2-((2-(Dimethylamino)ethyl)(methyl)amino)-4-methoxy-5-((4-(3-methoxy-1H-indazol-1-yl)pyrimidin-2-yl)amino)phenyl)acrylamide] | 2230
4 | 2200 | 7.67 | 3.05 | 140 nM | 5.71 nM | 10.8 nM | 23.1 | 249 | 67 | 0.53 | 719 | 159 | 3.55 | C=CC(=O)Nc1cc(Nc2nccc(-c3cc(C#N)cc4c3cnn4C)n2)c(OC)cc1N(C)CCN(C)C [Example 9, N-(5-((4-(6-Cyano-1-methyl-1H-indazol-4-yl)pyrimidin-2-yl)amino)-2-((2-(dimethylamino)ethyl)(methyl)amino)-4-methoxyphenyl)acrylamide] | 1010
5 | 695 | 16.5 | 12.7 |  |  |  |  |  |  |  |  |  |  | C=CC(=O)Nc1cc(Nc2nccc(-c3cccc4c3cnn4C)n2)c(OC)cc1N(C)CCN(C)C [Example 10, N-(2-((2-(Dimethylamino)ethyl)(methyl)amino)-4-methoxy-5-((4-(1-methyl-1H-indazol-4-yl)pyrimidin-2-yl)amino)phenyl)acrylamide] | 
6 | 2530 | 7.73 | 6.51 |  |  |  | 29.3 | 153 | 114 | 1.1 | 641 | 97 | 5.06 | C=CC(=O)Nc1cc(Nc2nccc(-c3cnc4c(c3)c(C)cn4C)n2)c(OC)cc1N(C)CCN(C)C [Example 11, N-(5-((4-(1,3-Dimethyl-1H-pyrrolo[2,3-b]pyridin-5-yl)pyrimidin-2-yl)amino)-2-((2-(dimethylamino)ethyl)(methyl)amino)-4-methoxyphenyl) acrylamide] | 5780
7 | 2430 | 19.1 | 16.8 | 63.6 nM | 7.73 nM | 11.8 nM |  |  |  |  |  |  |  | C=CC(=O)Nc1cc(Nc2nccc(-c3ccc4c(c3)c(C)cn4C)n2)c(OC)cc1N(C)CCN(C)C [Example 12, N-(5-((4-(1,3-Dimethyl-1H-indol-5-yl)pyrimidin-2-yl)amino)-2-((2-(dimethylamino)ethyl)(methyl)amino)-4-methoxyphenyl)acrylamide] | 4080
8 |  | 4.64 | 2.98 |  |  |  | 17.3 | 169 | 99 | 1.52 | 486 | 63.5 | 6.1 | C=CC(=O)Nc1cc(Nc2nccc(-c3cnc4c(c3)c(Cl)cn4C)n2)c(OC)cc1N(C)CCN(C)C [Example 13, N-(5-((4-(3-Chloro-1-methyl-1H-pyrrolo[2,3-b]pyridin-5-yl)pyrimidin-2-yl)amino)-2-((2-(dimethylamino)ethyl)(methyl)amino)-4-methoxyphenyl)acrylamide] | 1650
9 | 97.6 | 0.91 | 1.08 | 19 nM | 1.07 nM | 1.38 nM |  |  |  |  |  |  |  | C=CC(=O)Nc1cc(Nc2nccc(-n3nc(NCC)c4ncccc43)n2)c(OC(F)F)cc1N(C)CCN(C)C [Example 20, N-(4-(Difluoromethoxy)-2-((2-(dimethylamino)ethyl)(methyl)amino)-5-((4-(3-(ethylamino)-1H-pyrazolo[4,3-b]pyridin-1-yl)pyrimidin-2-yl)amino)phenyl)acrylamide] | 500
10 | 566 | 3.87 | 7.35 |  |  |  |  |  |  |  |  |  |  | C=CC(=O)Nc1cc(Nc2nccc(-n3nc(NC)c4ccsc43)n2)c(OC)cc1N(C)CCN(C)C [Example 23, N-(2-((2-(dimethylamino)ethyl)(methyl)amino)-4-methoxy-5-((4-(3-(methylamino)-1H-thieno[2,3-c]pyrazol-1-yl)pyrimidin-2-yl)amino)phenyl)acrylamide] | 
11 | 217 | 1.57 | 2.43 |  |  |  |  |  |  |  |  |  |  | C=CC(=O)Nc1cc(Nc2nccc(-n3nc(NC)c4cc(Cl)sc43)n2)c(OC)cc1N(C)CCN(C)C [Example 24, N-(5-((4-(5-chloro-3-(methylamino)-1H-thieno[2,3-c]pyrazol-1-yl)pyrimidin-2-yl)amino)-2-((2-(dimethylamino)ethyl)(methyl)amino)-4-methoxyphenyl)acrylamide] | 
12 | 1130 | 16.2 | 12.6 |  |  |  |  |  |  |  |  |  |  | C=CC(=O)Nc1cc(Nc2nccc(-c3cccc4c3ccn4C)n2)c(OC)cc1N(C)CCN(C)C [Example 25, N-(2-((2-(dimethylamino)ethyl)(methyl)amino)-4-methoxy-5-((4-(1-methyl-1H-indol-4-yl)pyrimidin-2-yl)amino)phenyl)acrylamide] | 
13 |  |  | 2.26 |  |  |  | 31.4 | 297 | 60.7 | 1.76 | 1040 | 99 | 3.65 | [2H]C([2H])([2H])N(CCN(C)c1cc(OC)c(Nc2nccc(-c3cc(C#N)c4c(c3)c(C)cn4C)n2)cc1NC(=O)C=C)C([2H])([2H])[2H] [Example 27, N-(2-((2-(Bis(methyl-d3)amino)ethyl)(methyl)amino)-5-((4-(7-cyano-1,3-dimethyl-1H-indol-5-yl)pyrimidin-2-yl)amino)-4-methoxyphenyl)acrylamide mesylate] | 
14 | 912 | 81.4 | 13.6 |  |  |  |  |  |  |  |  |  |  | C=CC(=O)Nc1cc(Nc2nccc(-c3cc(C#N)c4c(c3)c(C)cn4C)n2)c(OC)cc1NCCN(C)C [Example 28, N-(5-((4-(7-cyano-1,3-dimethyl-1H-indol-5-yl)pyrimidin-2-yl)amino)-2-((2-(dimethylamino)ethyl)amino)-4-methoxyphenyl)acrylamide] | 
15 | 1370 | 51.9 | 23.6 |  |  |  |  |  |  |  |  |  |  | C=CC(=O)Nc1cc(Nc2nccc(-c3cc(C#N)c4c(c3)c(C)cn4C)n2)c(OC)cc1N(C)CCNC [Example 29, N-(5-((4-(7-Cyano-1,3-dimethyl-1H-indol-5-yl)pyrimidin-2-yl)amino)-4-methoxy-2-(methyl(2-(methylamino)ethyl)amino)phenyl)acrylamide] | 
